Assay results taken from ChEMBL document CHEMBL1201862, “PubChem BioAssay data set” (2004).
“And” between values parts separate entries of the source, which are not always exact repeats. Equal values may be shown once.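 Cultured in 96-well plates, cells were exposed to test compound for 48 hours across five concentrations. The concentration for 50% growth inhibition is given as GI50.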 The source made the active and inactive calls. Rule as the data show it: active = GI50 up to about 1.1 µM and inactive = higher.

Experiments:
Experiment in all cases: DTP human tumour cell line panel, 48 h
A549 = test system: A549
MDA-MB-435 = test system: MDA-MB-435
SW-620 = test system: SW-620
T47D = test system: T47D
SF-268 = test system: SF-268
SK-OV-3 = test system: SK-OV-3
NCI-H226 = test system: NCI-H226
NCI-H522 = test system: NCI-H522
HL-60 = test system: HL-60
PC-3 = test system: PC-3
Hs-578T = test system: Hs-578T
MDA-N = test system: MDA-N
OVCAR-4 = test system: OVCAR-4
786-0 = test system: 786-0
MOLT-4 = test system: MOLT-4
ACHN = test system: ACHN
A498 = test system: A498
SNB-19 = test system: SNB-19
SK-MEL-2 = test system: SK-MEL-2
OVCAR-3 = test system: OVCAR-3
NCI/ADR-RES = test system: NCI/ADR-RES
SK-MEL-5 = test system: SK-MEL-5
Malme-3M = test system: Malme-3M
SF-539 = test system: SF-539
NCI-H23 = test system: NCI-H23
UACC-257 = test system: UACC-257
CAKI-1 = test system: CAKI-1
HOP-92 = test system: HOP-92
OVCAR-5 = test system: OVCAR-5
TK-10 = test system: TK-10
SK-MEL-28 = test system: SK-MEL-28
HCT-15 = test system: HCT-15
SF-295 = test system: SF-295
CCRF-CEM = test system: CCRF-CEM
HCT-116 = test system: HCT-116
SNB-75 = test system: SNB-75
U-251 = test system: U-251
MDA-MB-231 = test system: MDA-MB-231
MCF7 = test system: MCF7
IGROV-1 = test system: IGROV-1
M14 = test system: M14
HCC 2998 = test system: HCC 2998
K562 = test system: K562
SR = test system: SR
RXF 393 = test system: RXF 393
NCI-H460 = test system: NCI-H460
OVCAR-8 = test system: OVCAR-8
UO-31 = test system: UO-31
DU-145 = test system: DU-145
EKVX = test system: EKVX
LOX IMVI = test system: LOX IMVI
KM12 = test system: KM12
SN12C = test system: SN12C
HOP-62 = test system: HOP-62
RPMI-8226 = test system: RPMI-8226
COLO 205 = test system: COLO 205
HT-29 = test system: HT-29

CN(C)c1ccc(/C=C/c2sc3ccccc3[n+]2C)cc1
GI50 (A549): 2.2 µM (inactive) and 3.82 µM (inactive) | GI50 (MDA-MB-435): 813 nM (active) and 879 nM (active) | GI50 (SW-620): 433 nM (active) and 427 nM (active) | GI50 (T47D): 2.47 µM (inactive) and 4.05 µM (inactive) | GI50 (SF-268): 3.29 µM (inactive) and 3.4 µM (inactive) | GI50 (SK-OV-3): 4.56 µM (inactive) | GI50 (NCI-H226): 3.71 µM (inactive) and 2.62 µM (inactive) | GI50 (NCI-H522): 1.93 µM (inactive) and 1.58 µM (inactive) | GI50 (HL-60): 180 nM (active) and 348 nM (active) | GI50 (PC-3): 1.09 µM (active) and 838 nM (active) | GI50 (Hs-578T): 4 µM (inactive) and 7.62 µM (inactive) | GI50 (MDA-N): 1.16 µM (inactive) | GI50 (OVCAR-4): 2.62 µM (inactive) and 2.71 µM (inactive) | GI50 (786-0): 1.82 µM (inactive) and 1.61 µM (inactive) | GI50 (MOLT-4): 270 nM (active) and 238 nM (active) | GI50 (ACHN): 1.46 µM (inactive) and 2.2 µM (inactive) | GI50 (A498): 14.9 µM (inactive) and 12.6 µM (inactive) | GI50 (SNB-19): 2.09 µM (inactive) and 1.99 µM (inactive) | GI50 (SK-MEL-2): 2.82 µM (inactive) and 2.29 µM (inactive) | GI50 (OVCAR-3): 550 nM (active) and 501 nM (active) | GI50 (NCI/ADR-RES): 36.9 µM (inactive) and > 57 µM (inactive) | GI50 (SK-MEL-5): 1.09 µM (active) and 1.7 µM (inactive) | GI50 (Malme-3M): 1.54 µM (inactive) and 1.96 µM (inactive) | GI50 (SF-539): 3.18 µM (inactive) and 4.18 µM (inactive) | GI50 (NCI-H23): 1.07 µM (active) and 743 nM (active) | GI50 (UACC-257): 1.82 µM (inactive) and 1.6 µM (inactive) | GI50 (CAKI-1): 2.52 µM (inactive) and 3.33 µM (inactive) | GI50 (HOP-92): 3.65 µM (inactive) and 1.85 µM (inactive) | GI50 (OVCAR-5): 12.7 µM (inactive) and 10.3 µM (inactive) | GI50 (TK-10): 5.65 µM (inactive) and 3.37 µM (inactive) | GI50 (SK-MEL-28): 1.85 µM (inactive) and 3.44 µM (inactive) | GI50 (HCT-15): 4.75 µM and 9.27 µM | GI50 (SF-295): 3.29 µM (inactive) and 6.35 µM (inactive)

COc1ccc2cc1Oc1ccc(cc1)C[C@@H]1c3cc(c(OC)cc3CCN1C)Oc1c(OC)c(OC)cc3c1[C@H](C2)N(C)CC3 [ISOTETRANDRINE]
GI50 (CCRF-CEM): 16.9 µM (inactive) | GI50 (HCT-116): 17.7 µM (inactive) | GI50 (SF-268): 21.7 µM (inactive) | GI50 (SK-OV-3): 40.2 µM (inactive) | GI50 (SNB-75): 12.4 µM (inactive) | GI50 (NCI-H522): 12.6 µM (inactive) | GI50 (U-251): 22.2 µM (inactive) | GI50 (MDA-MB-231): 14.7 µM (inactive) | GI50 (HL-60): 10.8 µM (inactive) | GI50 (MCF7): 14 µM (inactive) | GI50 (Hs-578T): 16.7 µM (inactive) | GI50 (OVCAR-4): 17.9 µM (inactive) | GI50 (786-0): 24.7 µM (inactive) | GI50 (ACHN): 13.4 µM (inactive) | GI50 (IGROV-1): 20.7 µM (inactive) | GI50 (A498): 19.7 µM (inactive) | GI50 (M14): 11.1 µM (inactive) | GI50 (HCC 2998): 12.7 µM (inactive) | GI50 (SNB-19): 20.4 µM (inactive) | GI50 (K562): 4.16 µM (inactive) | GI50 (OVCAR-3): 18.2 µM (inactive) | GI50 (SK-MEL-5): 11.8 µM (inactive) | GI50 (SR): 2.41 µM (inactive) | GI50 (RXF 393): 1.44 µM (inactive) | GI50 (SF-539): 8.89 µM (inactive) | GI50 (NCI-H23): 15.8 µM (inactive) | GI50 (UACC-257): 11.3 µM (inactive) | GI50 (HOP-92): > 10 µM (inactive) | GI50 (TK-10): 19.1 µM (inactive) | GI50 (NCI-H460): 15.2 µM (inactive) | GI50 (HCT-15): 11.2 µM | GI50 (OVCAR-8): 17.9 µM (inactive) | GI50 (SF-295): 16.3 µM (inactive)

C=CCNC(=O)NNC(O)(C(=O)OCC)C(F)(F)F (configuration not stated)
GI50 (A549): > 100 µM (inactive) | GI50 (UO-31): > 100 µM (inactive) | GI50 (CCRF-CEM): > 100 µM (inactive) | GI50 (MDA-MB-435): > 100 µM (inactive) | GI50 (DU-145): > 100 µM (inactive) | GI50 (SW-620): > 100 µM (inactive) | GI50 (T47D): > 100 µM (inactive) | GI50 (EKVX): > 100 µM (inactive) | GI50 (HCT-116): > 100 µM (inactive) | GI50 (SF-268): > 100 µM (inactive) | GI50 (SK-OV-3): > 100 µM (inactive) | GI50 (NCI-H226): > 100 µM (inactive) | GI50 (SNB-75): > 100 µM (inactive) | GI50 (NCI-H522): > 100 µM (inactive) | GI50 (U-251): > 100 µM (inactive) | GI50 (MDA-MB-231): > 100 µM (inactive) | GI50 (HL-60): > 100 µM (inactive) | GI50 (PC-3): > 100 µM (inactive) | GI50 (MCF7): > 100 µM (inactive) | GI50 (Hs-578T): > 100 µM (inactive) | GI50 (MDA-N): > 100 µM (inactive) | GI50 (OVCAR-4): > 100 µM (inactive) | GI50 (786-0): > 100 µM (inactive) | GI50 (MOLT-4): > 100 µM (inactive) | GI50 (ACHN): > 100 µM (inactive) | GI50 (LOX IMVI): > 100 µM (inactive) | GI50 (IGROV-1): > 100 µM (inactive) | GI50 (A498): > 100 µM (inactive) | GI50 (M14): > 100 µM (inactive) | GI50 (KM12): > 100 µM (inactive) | GI50 (HCC 2998): > 100 µM (inactive) | GI50 (SNB-19): > 100 µM (inactive) | GI50 (K562): > 100 µM (inactive) | GI50 (SN12C): > 100 µM (inactive) | GI50 (SK-MEL-2): > 100 µM (inactive) | GI50 (OVCAR-3): > 100 µM (inactive) | GI50 (NCI/ADR-RES): > 100 µM (inactive) | GI50 (HOP-62): > 100 µM (inactive) | GI50 (SK-MEL-5): > 100 µM (inactive) | GI50 (RPMI-8226): > 100 µM (inactive) | GI50 (Malme-3M): > 100 µM (inactive) | GI50 (SR): > 100 µM (inactive) | GI50 (RXF 393): > 100 µM (inactive) | GI50 (SF-539): > 100 µM (inactive) | GI50 (NCI-H23): > 100 µM (inactive) | GI50 (UACC-257): > 100 µM (inactive) | GI50 (CAKI-1): > 100 µM (inactive) | GI50 (COLO 205): > 100 µM (inactive) | GI50 (HOP-92): > 100 µM (inactive) | GI50 (OVCAR-5): > 100 µM (inactive) | GI50 (TK-10): > 100 µM (inactive) | GI50 (NCI-H460): > 100 µM (inactive) | GI50 (SK-MEL-28): > 100 µM (inactive) | GI50 (HCT-15): > 100 µM | GI50 (OVCAR-8): > 100 µM (inactive) | GI50 (HT-29): > 100 µM (inactive)
